# Results: BindingDB's records for PubMed 7651361 (Georgetown University, 1995)
# “And” between values parts separate entries of the source, which are not always exact repeats. Equal entries are not always repeated.
# Biological target: Nicotinic acetylcholine receptor (Rattus leucopus, UniProt Q62594)
# Sequence (Q62594 whole entry): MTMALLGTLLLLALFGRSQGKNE
row,Structure (SMILES),Ki
1,COc1cc2c3cc1Oc1cc(ccc1O)CC1c4c(cc(OC)c(O)c4Oc4ccc(cc4)CC3[N+](C)(C)CC2)CC[N+]1(C)C (stereo not drawn) [CAS_8063-06-7],4.5 µM and 2.03 µM
2,CN1[C@@H]2CC[C@H]1CC(OC(=O)[C@H](CO)c1ccccc1)C2 (stereo partly drawn) [CAS_51-55-8],> 10 µM
3,C[N+](C)(C)CCCCCC[N+](C)(C)C [Hexamethoniumdibromide],> 10 µM
